From patent publication US11850266B2, “Cardiomyocytes and compositions and methods for producing the same” (President and Fellows of Harvard College, priority 2019, dated 2023)

What was measured:
[1] = test system: iPSC-derived cardiomyocytes; experiment: Flow cytometry (TNNT2+ purity, MFI of TNNT2 and Kir2.1) and cell counts; format: cell-based, human
Method: To prepare for differentiation, iPSCs were plated at a density between 20,000 to 80,000 cells (depending on the cell line) per well of a 12-well plate at four days prior to onset of differentiation. Cells were differentiated according to the protocol previously described by Lian et al. with some modifications (FIG. 1A) (1). Basal media was changed from StemFlex to RPMI/B27 on day 0 of differentiation. The GSK3 inhibitor, CHIR99021 (6 μM), was added for 48 hours from day 0 to day 2 of differentiation when cells were approximately 70-80% confluent. The Wnt antagonist IWP4 (5 μM) was added from days 2 to 4 of differentiation. Insulin (10 μg/ml) was added to the media starting on day 7 of differentiation, and media was changed every 2-3 days. In general, higher purity (TNNT2+) cardiomyocytes were observed when beating initiated prior to day 10 of differentiation, therefore only batches with onset of beating between days 7-10 of differentiation were included in this study. Beating cardiomyocytes were treated with Torin1 (200 nM, unless otherwise noted) or vehicle (0.02% dimethylsulfoxide (DMSO)) beginning at ˜2 days after onset of beating for 7 days (media changed with fresh Torin1 or DMSO every 2-3 days), unless otherwise noted. After Torin1 treatment, media was switched back to RPMI/B27/insulin and maintained with media change every 2-3 days until endpoint assay. In a few assays, fatty acids were added in the form of chemically defined lipids (Gibco) diluted 1:1000 simultaneous with Torin1 treatment. In some other assays, fetal bovine serum (10% FBS) was added to cells after completion of Torin treatment for 2-4 days.
Cells were dissociated and 5×10^5 to 1×10^6 cells were used per condition. For cell cycle analysis, 5×10^5 cells per condition were fixed in 70% cold ethanol for at least 2 hours to overnight at −20 degrees C. Cells were stained first with AlexaFluor 647-TNNT2 in Permeabilization Buffer (Thermo) then with Hoechst 33342 (2 μg/ml) and pyronin Y (4 μg/ml) for 20 minutes to distinguish between cells in G0, G1, and S-G2-M phases. For other stains, cells were fixed in eBioscience Intracellular Fixation buffer for 30 minutes followed washing twice in eBioscience Permeabilization Buffer and stained with the appropriate primary antibody (Table 2) in eBioscience FACS Staining buffer for 30-60 minutes. If a secondary antibody was used, cells were incubated with the appropriate secondary antibody (Table 2) for 30-60 minutes. The geometric mean fluorescence intensity (MFI) was quantified for TNNT2 and Kir2.1 antibodies. Data were acquired via a BD LSRII instrument and analyzed using FlowJo software.

[2] = test system: iPSC-derived cardiomyocytes; experiment: Muscular thin film (MTF) contractile force; format: cell-based, human; conditions: Torin1 200 nM 7 days, MTFs, FIG. 2F
Method: Gelatin muscular thin films (MTFs) were prepared as previously described (32). Square 22×22 mm glass coverslips were covered with low adhesive tape (Patco 5560 Removable Protective Film Tape), and an Epilog Mini 24 laser engraving instrument was used to cut the tape such that two inner rectangles (3×10 mm for cantilever region and 7×10 mm for base region) were surrounded by an outer border. The larger inner rectangle was peeled away and this region was activated with 0.1 M NaOH for 5 minutes, then 0.5% (3-aminopropyl)triethoxysilane (APTES) in 95% ethanol for 5 minutes, then 0.5% glutaraldehyde solution for 30 minutes. The glass coverslips were then rinsed and dried. Next, the tape covering the smaller inner rectangle region was peeled away. A 20% w/v stock gelatin (175 g bloom, Type A, Sigma) in distilled water solution was dissolved at 65° C. for 30 minutes and an 8% w/v stock microbial transglutaminase (MTG) (Ajinomoto) in distilled water solution was dissolved at 37° C. for 30 minutes. […] The radius of curvature for each MTF was quantified using ImageJ. Thickness of the MTF was determined using a Zeiss LSM confocal microscope. […] The maximum and average systolic, diastolic, and twitch (systolic—diastolic stress) stresses were calculated for each MTF.

## CCC(=O)N1CCN(c2ccc(-n3c(=O)ccc4cnc5ccc(-c6cnc7ccccc7c6)cc5c43)cc2C(F)(F)F)CC1 [Torin1]
[1]; 10% FBS 2 days after completion of Torin1, UCSD-CMs, FIG. 2I
  Torin1-induced increase in TNNT2 MFI after 10% FBS: reversed
[1]; FIGS. 10, 11
  TNNT2 MFI with shorter (5 days) or later (starting 10 days after initiation of beating) treatment: beneficial effects on TNNT2 MFI
[1]; Torin1 7 days, BJRiPS, FIG. 4B
  MFI of extracellular Kir2.1 by flow cytometry: significantly increased
[1]; Torin1 7 days, Gibco iPS-CMs, FIG. 2C
  TNNT2 MFI by flow cytometry: dose-dependent increase
[1]; Torin1 from day 9, 12 well plate, BJRiPS-CMs, FIG. 1C
  absolute numbers of cells per well: non-significant trend toward decreased absolute numbers of cells per well
[1]; non-significant trend, Gibco iPS-CMs, FIG. 1D
  purity of TNNT2+ cells: increased purity of TNNT2+ cells
[1]; three cell lines (BJRiPS, GCaMP, Gibco), FIG. 18E
  TNNT2 protein by mean fluorescence intensity (flow cytometry): significant increase in protein expression of TNNT2
[2]
  relative maximum systolic force versus control: ~2 fold
